Experimental data as given in the PolyMetriX glass transition set.
± gives the standard deviation of the reports.

| SMILES | glass transition temperature |
| --- | --- |
| *c1cccc(Cc2cccc(N3C(=O)c4ccc([Si](C)(C)c5ccc(-c6ccc([Si](C)(C)c7ccc8c(c7)C(=O)N(*)C8=O)cc6)cc5)cc4C3=O)c2)c1 (repeat unit) | 285.00 °C |
| *CC(CC)S* (repeat unit) | -47.00 °C |
| *Nc1ccc(Cc2ccc(NC(=O)c3ccc(C(*)=O)cc3)cc2)cc1 (repeat unit) | 294.50 °C |
| *CCCOC(=O)c1ccc2cc(C(=O)O*)ccc2c1 (repeat unit) | 88.00 °C |
| *c1ccc(Sc2ccc(-n3c(=O)c4cc5c(=O)n(*)c(=O)c5cc4c3=O)cc2)cc1 (repeat unit) | 400.00 °C |
| *CCCCOC(=O)C(Cc1ccccc1)NC(=O)/C=C/C(=O)NC(Cc1ccccc1)C(=O)O* (repeat unit) | 103.00 °C |
| *Oc1ccc(C(=O)c2ccc(NC(=O)c3ccc(C(=O)Nc4ccc(C(=O)c5ccc(*)cc5)cc4)cc3)cc2)cc1 (repeat unit) | 187.00 °C |
| *CCN(CCN1C(=O)c2ccc(C(c3ccc4c(c3)C(=O)N(*)C4=O)(C(F)(F)F)C(F)(F)F)cc2C1=O)c1ccc(/N=N/c2ccc([N+](=O)[O-])cc2C)cc1 (repeat unit) | 205.00 °C |
| *c1ccc(N(c2ccc(C#N)cc2)c2ccc(-n3c(=O)c4cc5c(=O)n(*)c(=O)c5cc4c3=O)cc2)cc1 (repeat unit) | 353.00 °C |
| *CCOCCOC(=O)CCCCCCCCC(=O)O* (repeat unit) | -74.50 °C |
| *CC(O)CN(CCO)CC(O)COc1ccc(C(C)(C)c2ccc(O*)cc2)cc1 (repeat unit) | 87.10 °C |
| *c1ccc(Oc2cccc(Oc3ccc(N4C(=O)c5cccc(Oc6ccc(C(=O)c7ccc(Oc8cccc9c8C(=O)N(*)C9=O)cc7)cc6)c5C4=O)cc3)c2)cc1 (repeat unit) | 216.00 °C |
| *C#Cc1cccc(C#C[SiH](*)C)c1 (repeat unit) | 72.00 °C |
| */C=C/CCCCCCCCCC(CCCCCCCCC*)COCCOCCOCCOCCOCc1ccc2ccc3cccc4ccc1c2c34 (repeat unit) | -36.00 °C |
| *c1ccc(Oc2ccc3ccc(Oc4ccc(-n5c(=O)c6cc7c(=O)n(*)c(=O)c7cc6c5=O)cc4)cc3c2)cc1 (repeat unit) | 320.80 °C |
| *C(=O)c1ccc2c(c1)C(=O)N(c1cc(-c3nc4ccccc4oc3=O)cc(N3C(=O)c4ccc(*)cc4C3=O)c1)C2=O (repeat unit) | 95.00 °C |
| *CCCCCCCCCCOc1ccc(/C=N/c2ccc(-c3ccc(/N=C/c4ccc(O*)cc4O)c(OC)c3)cc2OC)c(O)c1 (repeat unit) | 72.00 °C |
| */C=C/c1ccc(OC(=O)CCCCCCCCC(=O)Oc2cccc(-c3nnc(*)s3)c2)cc1 (repeat unit) | 37.00 °C |
| *Oc1ccc2cc(OC(=O)c3ccc(Oc4ccc(C(*)=O)cc4)cc3)ccc2c1 (repeat unit) | 145.00 °C |
| *CC(*)(F)F (repeat unit) [Poly(vinylidene fluoride)] | -32.77 ± 2.3 °C |
| *c1ccc2c(c1)C(=O)N(c1ccc(C(=O)Nc3ccc(Oc4ccc(NC(=O)c5ccc(N6C(=O)c7ccc(C(*)(C(F)(F)F)C(F)(F)F)cc7C6=O)cc5)cc4)cc3)cc1)C2=O (repeat unit) | 322.00 °C |
| *c1ccc(Oc2ccc(S(=O)(=O)c3ccc(Oc4ccc(-c5nc(-c6ccc(-c7nc(*)c(-c8ccccc8)[nH]7)cc6)[nH]c5-c5ccccc5)cc4)cc3)cc2)cc1 (repeat unit) | 301.00 °C |

| SMILES | glass transition temperature |
| --- | --- |
| *C(=O)c1ccc2nc(-c3ccccc3)c(-c3ccc(Oc4ccc(-c5nc6cc(*)ccc6nc5-c5ccccc5)cc4)cc3)nc2c1 (repeat unit) | 271.00 °C |
| *Oc1ccc(NC(=O)c2cc(NC(=O)c3ccccc3)cc(C(=O)Nc3ccc(*)cc3)c2)cc1 (repeat unit) | 294.50 °C |
| *Cc1cc2cc(C(=O)Nc3ccc(C(c4ccc(NC(=O)c5cc6cc(*)c(OC(=O)COc7ccc8ccc(=O)oc8c7)cc6oc5=O)cc4)(C(F)(F)F)C(F)(F)F)cc3)c(=O)oc2cc1OC(=O)COc1ccc2ccc(=O)oc2c1 (repeat unit) | 257.00 °C |
| *Oc1ccc(CC(NC(=O)CCc2ccc(OC(*)=O)cc2)C(=O)OCC)cc1 (repeat unit) | 96.00 °C |
| *CC(*)c1ccccc1C(=O)Nc1ccccc1 (repeat unit) | 191.00 °C |
| *Oc1ccc(C(=O)Nc2ccc(Br)cc2-c2ccc(NC(=O)c3ccc(*)cc3)cc2)cc1 (repeat unit) | 249.00 °C |
| *CC(*)(C)C(=O)OCCCCCCCCCCOc1ccc(OC(=O)c2ccc(-c3ccc(OC)cc3)cc2)cc1 (repeat unit) | 57.00 °C |
| *C1C2CC(CCCCc3ccccc3)C(C2)C1* (repeat unit) | 148.00 °C |
| *c1ccc(Oc2ccc(C(c3ccc(Oc4ccc(-c5ccc(*)s5)cc4C(F)(F)F)cc3)(C(F)(F)F)C(F)(F)F)cc2)c(C(F)(F)F)c1 (repeat unit) | 155.00 °C |
| *CCSSSS* (repeat unit) | -24.00 °C |
| *Oc1ccc(S(=O)(=O)c2ccc(Oc3ccc(C(C)(C)c4ccc(*)cc4)cc3)cc2)c(N)c1 (repeat unit) | 202.00 °C |
| *CCCCCCCCCCC(=O)Nc1ccc(Cc2ccc(NC(=O)CCCCCCCCCCN3C(=O)c4ccc(C(=O)c5ccc6c(c5)C(=O)N(*)C6=O)cc4C3=O)cc2)cc1 (repeat unit) | 136.00 °C |
| *CC(*)(C)C(=O)NC(=O)Oc1ccc(S(=O)(=O)c2ccc(O)cc2)cc1 (repeat unit) | 182.00 °C |
| *c1ccc(Oc2ccc(-c3cnc4cc(-c5ccc6nc(*)cnc6c5)ccc4n3)cc2)cc1 (repeat unit) | 334.00 °C |
| *c1cccc(C(=O)c2c(C)cc(C)c(N3C(=O)c4ccc(Oc5ccc6c(c5)C(=O)N(*)C6=O)cc4C3=O)c2C)c1 (repeat unit) | 287.00 °C |
| *Oc1ccccc1Oc1ccc(S(=O)(=O)c2ccc(*)cc2)cc1 (repeat unit) | 171.00 °C |
| *CC(*)(C)c1ccc(C)cc1 (repeat unit) | 176.00 °C |
| *CCCCCCCCCCOc1ccc(/C=C/c2ccc(OCCCCCCCCCCOP(=O)(O*)OCCCCCCCCCCOc3ccc(/N=N/c4ccc(-c5ccccc5)cc4)cc3)cc2)cc1 (repeat unit) | 50.00 °C |
| *CC(*)C1CCC(C)CC1 (repeat unit) | 132.00 °C |
| *c1ccc(-c2sc(-c3ccc(-c4cc(SCCCC)c(*)s4)cc3)cc2SCCCC)cc1 (repeat unit) | 26.40 °C |
| *O[Si](C)(C)O[Si](C)(C)O[Si](C)(C)OC(C)CCCCC(*)C (repeat unit) | -94.00 °C |
| *Oc1ccc(NC(=O)c2cc(NC(=O)c3ccc(OC(C)=O)cc3)cc(C(=O)Nc3ccc(*)cc3)c2)cc1 (repeat unit) | 273.00 °C |

| SMILES | glass transition temperature |
| --- | --- |
| *CCCCCCOC(=O)Nc1ccc(C)c(NC(=O)OCCCCCCOc2ccc(-c3ccc(O*)cc3)cc2)c1 (repeat unit) | 87.00 °C |
| */C=C(/*)c1cccc[c]1[Ge]([CH3])([CH3])[CH3] (repeat unit) | 180.00 °C |
| *C1=C(c2ccc(-c3ccc4c(c3)C(CCCCCC)(CCCCCC)c3cc(-c5ccc(*)cc5)ccc3-4)cc2)C(=O)N(CCCCCCCCCCCC)C1=O (repeat unit) | 100.00 °C |
| *Oc1ccc(CC(NC(=O)CCc2ccc(OC(=O)COCCOCC(*)=O)cc2)C(=O)OCC(C)C)cc1 (repeat unit) | 50.00 °C |
| *CC(*)(C)C(=O)OCCCc1ccc(/N=N/c2ccc(OC(F)(F)F)cc2)cc1 (repeat unit) | 211.50 °C |
| *C(=O)Nc1ccc(C2(c3ccc(NC(=O)c4ccc5c(c4)C(=O)N(c4ccc(Sc6ccc(Oc7ccc(Sc8ccc(N9C(=O)c%10ccc(*)cc%10C9=O)cc8)cc7)cc6)cc4)C5=O)cc3)c3ccccc3-c3ccccc32)cc1 (repeat unit) | 298.00 °C |
| *Nc1cc(NC(=O)c2cccc(C(*)=O)c2)cc(C(=O)OCCOc2ccc(/C=C/C(=O)c3ccccc3)cc2)c1 (repeat unit) | 216.00 °C |
| *CCCS(=O)(=O)CCCCS(=O)(=O)CCCOC(=O)c1ccccc1C(=O)O* (repeat unit) | 49.00 °C |
| *CC(*)C(=O)Oc1ccccc1 (repeat unit) | 60.00 °C |
| *Oc1ccc(Oc2ccc(C(=O)c3ccc(-c4ccc(C(=O)c5ccc(*)cc5)cc4)cc3)cc2)cc1-c1ccccc1 (repeat unit) | 186.00 °C |
| *Oc1ccc(CC(*)=O)cc1 (repeat unit) | 117.00 °C |
| *c1cccc(Oc2cccc(N3C(=O)c4ccc(Oc5ccc6c(c5)C(=O)N(*)C6=O)cc4C3=O)c2)c1 (repeat unit) | 206.00 ± 1.4 °C |
| *CCCCCCCCCCOC(=O)NCc1ccc(CNC(=O)O*)cc1 (repeat unit) | 49.00 °C |
| *CC(O)COc1c(C)cc(S(=O)(=O)c2cc(C)c(O*)c(C)c2)cc1C (repeat unit) | 152.50 °C |
| *CCCCNC(=O)CC(=O)N* (repeat unit) | 73.00 °C |
| *CCCCCCCCCCCN1C(=O)c2ccc(-c3ccc(-c4ccc5c(c4)C(=O)N(*)C5=O)cc3)cc2C1=O (repeat unit) | 89.00 °C |
| *Oc1ccc(-c2ccc(OC(=O)c3cc(CCCCC)cc(C(*)=O)c3)cc2)cc1 (repeat unit) | 138.00 °C |
| *CCCOC(=O)C1CCC(C(=O)O*)CC1 (repeat unit) | -6.00 °C |
| *CC(*)(C)C(=O)OCCOC(=O)c1cc([N+](=O)[O-])cc([N+](=O)[O-])c1 (repeat unit) | 92.00 °C |
| *Nc1cc([N+](=O)[O-])c(NC(=O)CCCCC(*)=O)cc1/C=C/c1ccc(N(C)C)cc1 (repeat unit) | 206.00 °C |
| *Oc1ccc(NC(=O)c2ccc(-c3ccc(C(=O)Nc4ccc(Oc5ccc(C6(c7ccc(*)cc7)CC7CCC6C7)cc5)cc4)cc3)cc2)cc1 (repeat unit) | 296.00 °C |
| *CC(=O)Nc1ccc(Oc2cccc(Oc3ccc(NC(=O)CN4C(=O)c5ccc(C(c6ccc7c(c6)C(=O)N(*)C7=O)(C(F)(F)F)C(F)(F)F)cc5C4=O)cc3)c2)cc1 (repeat unit) | 221.00 °C |
